Structures can show the parent of a compound that is named as a salt. Where two headings read alike, the source gives them in different places.

In experiment [1] the target is T1, SARS-CoV-2 PLpro (nsp3 1564–1878) (Severe acute respiratory syndrome coronavirus 2, UniProt P0DTD1). The experiment in a line: biochemical. Set-up: FRET-quenched peptide (Pro3) cleavage by PLpro, 10 min pre-incubation, slope over 20 min, normalised to no-compound control. To be noted: low concentration screen, read-out: % of control remaining.
The target in experiment [2] is T1, SARS-CoV-2 PLpro (nsp3 1564–1878). In words: biochemical. Set-up: FRET-quenched peptide (Pro3) cleavage by PLpro, 10 min pre-incubation, slope over 20 min, normalised to no-compound control. To be noted: high concentration screen, read-out: % of control remaining.

Consider `O[C@H](CNC[C@@H](O)[C@H]1CCc2cc(F)ccc2O1)[C@@H]1CCc2cc(F)ccc2O1` [Nebivolol (hydrochloride)], for which the remaining activity at 1.25 µM in experiment [1] (Well no.=8139) amounted to 105%. Further, the remaining activity at 3.75 µM in experiment [2] (Well no.=8139) came out at 102%.
As for `O=S(=O)(O)c1cc(O)c2c(N=Nc3c(S(=O)(=O)O)cc4cc(S(=O)(=O)O)cc(O)c4c3O)cc(S(=O)(=O)O)cc2c1` [Beryllon II], the remaining activity at 1.25 µM in experiment [1] (Well no.=7982) amounted to 92.8%. For the same compound, the remaining activity at 3.75 µM in experiment [2] (Well no.=7982) turned out to be 93.7%.
Take `CCC(=O)OCC(=O)[C@@]1(OC(=O)CC)[C@@H](C)C[C@H]2[C@@H]3CCC4=CC(=O)C=C[C@]4(C)[C@@]3(F)[C@@H](O)C[C@@]21C` [Betamethasone dipropionate]: the remaining activity at 1.25 µM in experiment [1] (Well no.=7091) worked out at 93.4%. Further, the remaining activity at 3.75 µM in experiment [2] (Well no.=7091) amounted to 98.8%.
For `COc1c2ccoc2cc2oc(C)cc(=O)c12` [Visnagin], the remaining activity at 1.25 µM in experiment [1] (Well no.=3689) was 99.6%. Further, the remaining activity at 3.75 µM in experiment [2] (Well no.=3689) is 101%.
As for `O=C(NC1CCNCC1)c1n[nH]cc1NC(=O)c1c(Cl)cccc1Cl` [AT-7519], in experiment [1] (Well no.=2836), the remaining activity at 1.25 µM amounted to 97.9%. For the same compound, the remaining activity at 3.75 µM in experiment [2] (Well no.=2836) was 98.3%.
Regarding `OC[C@@H](O)[C@@H](O)[C@H](O)[C@@H](O)CO` [D-Sorbitol], the remaining activity at 1.25 µM in experiment [1] (Well no.=6253) was 115%. For the same compound, in experiment [2] (Well no.=6253), the remaining activity at 3.75 µM amounted to 112%.
As for `N[C@@H]1C=CC=C(C(=O)O)C1` [Gabaculine hydrochloride], the remaining activity at 1.25 µM in experiment [1] (Well no.=13) amounted to 105%. Also, in experiment [2] (Well no.=13), the remaining activity at 3.75 µM turned out to be 105%.
As to `Cc1ccccc1/C=C/C1=NCCN1` [Metrazoline oxalate], in experiment [1] (Well no.=1074), the remaining activity at 1.25 µM is 88.9%. The remaining activity at 3.75 µM in experiment [2] (Well no.=1074) was 89.7%.
With `CCCCCCCCCCCCC/C=C/[C@@H](O)[C@H](CO)NC(=O)CCCCCCCCCCCCCCC` [C16 Ceramide], the remaining activity at 1.25 µM in experiment [1] (Well no.=4397) was determined as 101%. In addition, in experiment [2] (Well no.=4397), the remaining activity at 3.75 µM was found to be 101%.
`Cc1[nH]c2ccc(O)cc2c1CCN` [2-Methyl-5-hydroxytryptamine maleate]: in experiment [1] (Well no.=847), the remaining activity at 1.25 µM was 102%. The remaining activity at 3.75 µM in experiment [2] (Well no.=847) came to 102%.
As for `COc1cc(/C=C/C(O)=C/C(=O)/C=C/c2ccc(O)cc2)ccc1O` [Demethoxycurcumin], in experiment [1] (Well no.=6262), the remaining activity at 1.25 µM is 103%. Further, the remaining activity at 3.75 µM in experiment [2] (Well no.=6262) is 98.7%.
As for `O=S(=O)(Nc1ccc(C(O)(C(F)(F)F)C(F)(F)F)cc1)c1cccs1` [SR3335], the remaining activity at 1.25 µM in experiment [1] (Well no.=8457) came to 110%. The remaining activity at 3.75 µM in experiment [2] (Well no.=8457) came to 107%.
On to `COc1cc(CCc2cc(NC(=O)c3ccc(N4C[C@@H](C)N[C@@H](C)C4)cc3)n[nH]2)cc(OC)c1` [AZD4547], for which the remaining activity at 1.25 µM in experiment [1] (Well no.=5125) was 101%. Moreover, the remaining activity at 3.75 µM in experiment [2] (Well no.=5125) is 93.9%.
As for `CC(C(=O)O)c1cccc(Oc2ccccc2)c1` (stereo not shown) [Fenoprofen], the remaining activity at 1.25 µM in experiment [1] (Well no.=2082) came out at 98.6%. Further, in experiment [2] (Well no.=2082), the remaining activity at 3.75 µM was 99.2%.
Consider `CCCC[N+]1(C)[C@H]2CC(OC(=O)C(CO)c3ccccc3)C[C@H]1[C@H]1O[C@H]12` (stereo partly shown) [Scopolamine N-butyl], for which, in experiment [1] (Well no.=2243), the remaining activity at 1.25 µM was 95%. In addition, the remaining activity at 3.75 µM in experiment [2] (Well no.=2243) was found to be 91.9%.
Take `CCCCCCCCCCCCCC(=O)O` [Myristic acid]: the remaining activity at 1.25 µM in experiment [1] (Well no.=6979) worked out at 101%. The remaining activity at 3.75 µM in experiment [2] (Well no.=6979) is 102%.
With `COc1cccc(C(=O)NCCN2CCN(c3ccc(Cl)cc3)CC2)c1` [N-(2-[4-(4-Chlorophenyl)piperazin-1-yl]ethyl)-3-methoxybenzamide], in experiment [1] (Well no.=232), the remaining activity at 1.25 µM stood at 99.5%. In experiment [2] (Well no.=232), the remaining activity at 3.75 µM was found to be 99.4%.
`CC1CCN(CC[C@H]2CCCN2S(=O)(=O)c2cccc(O)c2)CC1` [SB-269970 (hydrochloride)]: the remaining activity at 1.25 µM in experiment [1] (Well no.=8385) is 108%. Further, the remaining activity at 3.75 µM in experiment [2] (Well no.=8385) came to 101%.
For the compound `CCCN1C[C@H](CSC)C[C@@H]2c3cccc4[nH]cc(c34)C[C@H]21` [Pergolide mesylate], in experiment [1] (Well no.=1602), the remaining activity at 1.25 µM is 94.9%. In addition, in experiment [2] (Well no.=1602), the remaining activity at 3.75 µM was determined as 97.1%.
For `CN1C(=O)[C@]23CC4=CC=C[C@H](O)[C@H]4N2C(=O)[C@@]1(CO)SS3` [Gliotoxin], the remaining activity at 1.25 µM in experiment [1] (Well no.=3323) was found to be 94.1%. Further, the remaining activity at 3.75 µM in experiment [2] (Well no.=3323) worked out at 95.5%.
